# Measurements reported in PMC4551560, “Metabolic profiling of ligands for the chemokine receptor CXCR3 by liquid chromatography-mass spectrometry coupled to bioaffinity assessment” (Analytical and Bioanalytical Chemistry, 2015).
# What was measured:
# [1] = target: T1, CXCR3 (Homo sapiens, UniProt P49682); experiment: [3H]-VUF11211 radioligand displacement after LC nanofractionation, HEK293/CXCR3 membranes; type: binding
# T1 construct: human CXCR3 in HEK293/CXCR3 membranes
# T1 sequence (P49682 1-368): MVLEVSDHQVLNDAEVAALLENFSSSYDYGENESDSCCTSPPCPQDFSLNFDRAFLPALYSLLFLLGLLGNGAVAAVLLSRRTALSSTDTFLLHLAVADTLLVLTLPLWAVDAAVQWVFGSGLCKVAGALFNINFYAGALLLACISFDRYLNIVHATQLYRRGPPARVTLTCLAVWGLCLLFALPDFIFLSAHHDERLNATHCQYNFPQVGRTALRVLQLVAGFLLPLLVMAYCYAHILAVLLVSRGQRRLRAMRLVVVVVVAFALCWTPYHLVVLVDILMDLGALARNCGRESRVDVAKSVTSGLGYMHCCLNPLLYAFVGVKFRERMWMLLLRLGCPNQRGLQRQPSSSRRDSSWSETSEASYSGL
# [2] = target: T1, CXCR3; experiment: [3H]-VUF11211 radioligand displacement after LC nanofractionation, HEK293/CXCR3 membranes; […]-CXCL10 displacement also shown; type: binding
Ki [1] [nM],Structure (SMILES),Kd [2] [nM]
12.6,CCOc1ccc(-n2c([C@@H](C)N(Cc3cccnc3)C(=O)Cc3ccc(F)c(C(F)(F)F)c3)nc3ncccc3c2=O)cc1 [NBI-74330],
,CCNC(=O)c1cnc(N2CCN(C3CCN(Cc4ccc(Cl)cc4)CC3)[C@@H](CC)C2)c(Cl)c1 [VUF11211],0.501
